US10336730B2, “Substituted glycine derived FXIA inhibitors” (BRISTOL-MYERS SQUIBB COMPANY, priority 2015, dated 2019)

target: T1, purified human Factor XIa (Homo sapiens, UniProt P03951); assay: Factor XIa enzyme inhibition assay (chromogenic substrate S-2366), Ki; assay type: biochemical; details: substrate S-2366, pH 7.4
T1 construct: purchased Haematologic Technologies
Protocol: The effectiveness of compounds of the present invention as inhibitors of the coagulation Factors XIa, VIIa, IXa, Xa, XIIa, plasma kallikrein, thrombin, chemytrypsin or trypsin can be determined using a relevant purified serine protease, respectively, and an appropriate synthetic substrate. The rate of hydrolysis of the chromogenic or fluorogenic substrate by the relevant serine protease was measured both in the absence and presence of compounds of the present invention. […] A decrease in the rate of absorbance or fluorescence change in the presence of inhibitor is indicative of enzyme inhibition. Such methods are known to one skilled in the art. The results of this assay are expressed as the inhibitory constant, Ki.
Factor XIa determinations were made in 50 mM HEPES buffer at pH 7.4 containing 145 mM NaCl, 5 mM KCl, and 0.1% PEG 8000 (polyethylene glycol; JT Baker or Fisher Scientific). Determinations were made using purified human Factor XIa at a final concentration of […] (Haematologic Technologies) and the synthetic substrate S-2366 (pyroGlu-Pro-Arg-pNA; CHROMOGENIX® or AnaSpec) at a concentration of 0.0002-0.001 M.
Values of Ki were determined by allowing the protease to react with the substrate in the presence of the inhibitor. Reactions were allowed to go for periods of 20-180 minutes (depending on the protease) and the velocities (rate of absorbance or fluorescence change versus time) were measured. The following relationships were used to calculate Ki values: (Vmax*S)/(Km+S) (vo−vs)/vs=I/(Ki*(1+S/Km)) for a competitive inhibitor with one binding site; or vs/vo=A+(B−A)/(1+(IC50/(I)^n)); and Ki=IC50/(1+S/Km) for a competitive inhibitor where: […]

T1 sequence (P03951 388-625 limits assumed): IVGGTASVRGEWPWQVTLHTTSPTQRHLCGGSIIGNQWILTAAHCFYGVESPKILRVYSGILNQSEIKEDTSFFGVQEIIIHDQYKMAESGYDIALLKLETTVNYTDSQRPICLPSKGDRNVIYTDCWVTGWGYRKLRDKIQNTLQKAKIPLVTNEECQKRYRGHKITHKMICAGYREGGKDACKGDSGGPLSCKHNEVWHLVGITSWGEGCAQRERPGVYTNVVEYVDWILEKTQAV
T1 sequence (P03951 19-387 partner limits assumed): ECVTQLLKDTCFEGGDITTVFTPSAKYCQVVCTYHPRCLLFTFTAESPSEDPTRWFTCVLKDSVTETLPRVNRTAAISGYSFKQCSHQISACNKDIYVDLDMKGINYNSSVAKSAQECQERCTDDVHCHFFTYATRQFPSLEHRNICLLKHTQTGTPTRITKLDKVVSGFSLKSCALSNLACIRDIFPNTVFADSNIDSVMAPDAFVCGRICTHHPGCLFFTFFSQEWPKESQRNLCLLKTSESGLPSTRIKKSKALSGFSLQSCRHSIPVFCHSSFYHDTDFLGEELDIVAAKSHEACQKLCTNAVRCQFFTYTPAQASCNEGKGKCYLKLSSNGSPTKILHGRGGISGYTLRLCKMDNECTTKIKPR

Ki [µM]	Compound
4.94	O=C1CCN(C(=O)[C@H](Cc2ccccc2)n2cnc(-c3cc(Cl)ccc3-n3cc(Cl)nn3)cc2=O)CCN1 [Example 55, (S)-1-(2-(4-(5-chloro-2-(4-chloro-1H-1,2,3-triazol-1-yl)phenyl)-6-oxopyrimidin-1(6H)-yl)-3-phenylpropanoyl)-1,4-diazepan-5-one]
7.37	O=C([C@H](Cc1ccccc1)n1cnc(-c2cc(Cl)ccc2-n2cc(Cl)nn2)cc1=O)N1CCC(CO)CC1 [Example 56, (S)-6-(5-chloro-2-(4-chloro-1H-1,2,3-triazol-1-yl)phenyl)-3-(1-(4-(hydroxymethyl)piperidin-1-yl)-1-oxo-3-phenylpropan-2-yl)pyrimidin-4(3H)-one]
4.89	O=C([C@H](Cc1ccccc1)n1cnc(-c2cc(Cl)ccc2-n2cc(Cl)nn2)cc1=O)N1CCN(c2ccncc2)CC1 [Example 57, (S)-6-(5-chloro-2-(4-chloro-1H-1,2,3-triazol-1-yl)phenyl)-3-(1-oxo-3-phenyl-1-(4-(pyridin-4-yl)piperazin-1-yl)propan-2-yl)pyrimidin-4(3H)-one]
7.37	CC(=O)N1CCN(C(=O)[C@H](Cc2ccccc2)n2cnc(-c3cc(Cl)ccc3-n3cc(Cl)nn3)cc2=O)CC1 [Example 60, (S)-3-(1-(4-acetylpiperazin-1-yl)-1-oxo-3-phenylpropan-2-yl)-6-(5-chloro-2-(4-chloro-1H-1,2,3-triazol-1-yl)phenyl)pyrimidin-4(3H)-one]
7.5	CN(C)C1CCN(C(=O)[C@H](Cc2ccccc2)n2cnc(-c3cc(Cl)ccc3-n3cc(Cl)nn3)cc2=O)CC1 [Example 63, (S)-6-(5-chloro-2-(4-chloro-1H-1,2,3-triazol-1-yl)phenyl)-3-(1-(4-(dimethylamino)piperidin-1-yl)-1-oxo-3-phenylpropan-2-yl)pyrimidin-4(3H)-one]
7.37	CC(C)c1nnc2n1CCN(C(=O)[C@H](Cc1ccccc1)n1cnc(-c3cc(Cl)ccc3-n3cc(Cl)nn3)cc1=O)C2 [Example 67, (S)-6-(5-chloro-2-(4-chloro-1H-1,2,3-triazol-1-yl)phenyl)-3-(1-(3-isopropyl-5,6-dihydro-[1,2,4]triazolo[4,3-a]pyrazin-7(8H)-yl)-1-oxo-3-phenylpropan-2-yl)pyrimidin-4(3H)-one]
4.41	CN1CCN(C(=O)[C@H](Cc2ccccc2)n2cnc(-c3cc(Cl)ccc3-n3cc(Cl)nn3)cc2=O)CC1 [Example 68, (S)-6-(5-chloro-2-(4-chloro-1H-1,2,3-triazol-1-yl)phenyl)-3-(1-(4-methylpiperazin-1-yl)-1-oxo-3-phenylpropan-2-yl)pyrimidin-4(3H)-one]
0.79	O=C([C@H](Cc1ccccc1)n1cnc(-c2cc(Cl)ccc2-n2cc(Cl)nn2)cc1=O)N1CCc2ccccc2C1 [Example 71, (S)-6-(5-chloro-2-(4-chloro-1H-1,2,3-triazol-1-yl)phenyl)-3-(1-(3,4-dihydroisoquinolin-2(1H)-yl)-1-oxo-3-phenylpropan-2-yl)pyrimidin-4(3H)-one]
13.3	O=C([C@H](Cc1ccccc1)n1cnc(-c2cc(Cl)ccc2-n2cc(Cl)nn2)cc1=O)N1CCC(Cc2ccccc2)CC1 [Example 72, (S)-3-(1-(4-benzylpiperidin-1-yl)-1-oxo-3-phenylpropan-2-yl)-6-(5-chloro-2-(4-chloro-1H-1,2,3-triazol-1-yl)phenyl)pyrimidin-4(3H)-one]
4.44	O=C([C@H](Cc1ccccc1)n1cnc(-c2cc(Cl)ccc2-n2cc(Cl)nn2)cc1=O)N1CCC(c2ccccc2)CC1 [Example 73, (S)-6-(5-chloro-2-(4-chloro-1H-1,2,3-triazol-1-yl)phenyl)-3-(1-oxo-3-phenyl-1-(4-phenylpiperidin-1-yl)propan-2-yl)pyrimidin-4(3H)-one]
0.552	O=C(NCc1ccncc1)[C@H](Cc1ccccc1)n1cnc(-c2cc(Cl)ccc2-n2cc(Cl)nn2)cc1=O [Example 74, (S)-2-(4-(5-chloro-2-(4-chloro-1H-1,2,3-triazol-1-yl)phenyl)-6-oxopyrimidin-1(6H)-yl)-3-phenyl-N-(pyridin-4-ylmethyl)propanamide]

Second part, the compound before the results:

Compound	Ki [µM]
COCCN(C)C(=O)[C@H](Cc1ccccc1)n1cnc(-c2cc(Cl)ccc2-n2cc(Cl)nn2)cc1=O [Example 58, (S)-2-(4-(5-chloro-2-(4-chloro-1H-1,2,3-triazol-1-yl)phenyl)-6-oxopyrimidin-1(6H)-yl)-N-(2-methoxyethyl)-N-methyl-3-phenylpropanamide]	7.86
NC(=O)CCNC(=O)[C@H](Cc1ccccc1)n1cnc(-c2cc(Cl)ccc2-n2cc(Cl)nn2)cc1=O [Example 59, (S)-N-(3-amino-3-oxopropyl)-2-(4-(5-chloro-2-(4-chloro-1H-1,2,3-triazol-1-yl)phenyl)-6-oxopyrimidin-1(6H)-yl)-3-phenylpropanamide]	6.17
COC(=O)CCNC(=O)[C@H](Cc1ccccc1)n1cnc(-c2cc(Cl)ccc2-n2cc(Cl)nn2)cc1=O [Example 61, methyl (S)-3-(2-(4-(5-chloro-2-(4-chloro-1H-1,2,3-triazol-1-yl)phenyl)-6-oxopyrimidin-1(6H)-yl)-3-phenylpropanamido)propanoate]	3.65
NC(=O)CNC(=O)[C@H](Cc1ccccc1)n1cnc(-c2cc(Cl)ccc2-n2cc(Cl)nn2)cc1=O [Example 62, (S)-N-(2-amino-2-oxoethyl)-2-(4-(5-chloro-2-(4-chloro-1H-1,2,3-triazol-1-yl)phenyl)-6-oxopyrimidin-1(6H)-yl)-3-phenylpropanamide]	8.98
NS(=O)(=O)c1ccc(CNC(=O)[C@H](Cc2ccccc2)n2cnc(-c3cc(Cl)ccc3-n3cc(Cl)nn3)cc2=O)cc1 [Example 64, (S)-2-(4-(5-chloro-2-(4-chloro-1H-1,2,3-triazol-1-yl)phenyl)-6-oxopyrimidin-1(6H)-yl)-3-phenyl-N-(4-sulfamoylbenzyl)propanamide]	1.27
CCOC(=O)c1cn2c(n1)CN(C(=O)[C@H](Cc1ccccc1)n1cnc(-c3cc(Cl)ccc3-n3cc(Cl)nn3)cc1=O)CC2 [Example 65, ethyl (S)-7-(2-(4-(5-chloro-2-(4-chloro-1H-1,2,3-triazol-1-yl)phenyl)-6-oxopyrimidin-1(6H)-yl)-3-phenylpropanoyl)-5,6,7,8-tetrahydroimidazo[1,2-a]pyrazine-2-carboxylate]	4.94
CN1CCC2(CCCN(C(=O)[C@H](Cc3ccccc3)n3cnc(-c4cc(Cl)ccc4-n4cc(Cl)nn4)cc3=O)C2)C1=O (stereo partly drawn) [Example 66, 7-((S)-2-(4-(5-chloro-2-(4-chloro-1H-1,2,3-triazol-1-yl)phenyl)-6-oxopyrimidin-1(6H)-yl)-3-phenylpropanoyl)-2-methyl-2,7-diazaspiro[4.5]decan-1-one]	12.2
O=C(NCCN1CCCC1)[C@H](Cc1ccccc1)n1cnc(-c2cc(Cl)ccc2-n2cc(Cl)nn2)cc1=O [Example 69, (S)-2-(4-(5-chloro-2-(4-chloro-1H-1,2,3-triazol-1-yl)phenyl)-6-oxopyrimidin-1(6H)-yl)-3-phenyl-N-(2-(pyrrolidin-1-yl)ethyl)propanamide]	7.62
O=C(NCc1ccccn1)[C@H](Cc1ccccc1)n1cnc(-c2cc(Cl)ccc2-n2cc(Cl)nn2)cc1=O [Example 70, (S)-2-(4-(5-chloro-2-(4-chloro-1H-1,2,3-triazol-1-yl)phenyl)-6-oxopyrimidin-1(6H)-yl)-3-phenyl-N-(pyridin-2-ylmethyl)propanamide]	0.931
